One series relates to pancreatic cancer. The following applies: pancreatic cancer patients, cited from earlier work.
For another series, the system named is L929. In words: cell viability assay on L929 normal cell line. The format is cell-based. The following applies: FIG. 5B; normal mouse fibroblast cell line.
Series [1] relates to PANC-1 pancreatic carcinoma tumors. The series is described as follows: anticancer efficacy in mouse xenograft model (tumor growth). It is filed as in vivo, BALB/c mice. The procedure: (§1) Normally, non-treated group is injected with saline (NaCl solution) in anti-cancer efficacy study.
Series [2] is described as follows: weight monitoring in mouse xenograft model. The format is in vivo, BALB/c mice. The following applies: FIG. 6B; PANC-1 model; dose: docetaxel standard, 20 mg/kg. The protocol: as §1

`O=c1[nH]cc(F)c(=O)[nH]1` [5-FU, 5-fluorouracil]: the “survival rate, gemcitabine compared to 5-FU” value with pancreatic cancer is 4.41 months. Besides, the “median overall survival rate compared to supportive care” value in the series with pancreatic cancer (supportive care 2.5 months) is listed as 6 moths.
Consider `CC(=O)O[C@@]12CO[C@@H]1C[C@H](O)[C@@]1(C)C(=O)[C@H](O)C3=C(C)[C@@H](OC(=O)[C@H](O)[C@@H](NC(=O)OC(C)(C)C)c4ccccc4)C[C@@](O)([C@@H](OC(=O)c4ccccc4)[C@H]21)C3(C)C` [DTX, docetaxel], for which, in the series with L929, the “cytotoxicity toward normal cell line L929” value was “low cytotoxicity”. In addition, the “tumor growth (mean tumor volume)” value in series [1] (FIG. 6A; PANC-1 model; dose: docetaxel standard, 20 mg/kg; P<0.01 vs negative control) was “significant inhibition in tumor growth”. The body weight loss entry in series [2] is “significant body weight loss was observed”.
Turning to “docetaxel-aconitic anhydride conjugate [A3Tx]”, the “tumor growth (mean tumor volume)” value in series [1] (FIG. 6A, PANC-1 model, dose: docetaxel standard, 20 mg/kg, P<0.01 vs negative control) is “significant inhibition in tumor growth”; in series [1] (FIG. 6A, PANC-1 model, dose: docetaxel standard, 20 mg/kg, P<0.01 vs negative control, listed as A3TX), “significantly delays tumor growth”.
`Nc1ccn([C@@H]2O[C@H](CO)[C@@H](O)C2(F)F)c(=O)n1` [gemcitabine]: the “survival rate, gemcitabine compared to 5-FU” value in the series on pancreatic cancer is 5.65 months.

The record behind these values is patent publication US12419961B2 (CNPharm Co., Ltd., priority 2021, dated 2025).
